# PMC5418920 (The Open Medicinal Chemistry Journal, 2017)
# Molecular target: ALR2 (Rattus norvegicus, UniProt P07943)
# Assay: ALR2 enzymatic inhibition, spectrophotometric NADPH oxidation at 340 nm
# Type: biochemical
# Details: not given
row,Compound,IC50 [µM]
1,"COc1ccc(C2(C)CC3(CN(CC(=O)O)C(=O)CO3)c3cc(Br)ccc3O2)cc1 (centres unmarked) [Compound 4, 2-(6-Bromo-2-(4-methoxyphenyl)-2-methyl-5'-oxospiro[chroman-4,2'-morpholin]-4'-yl) acetic acid]",4.97
2,"CC1(C)CC2(CN(CC(=O)O)C(=O)O2)c2ccccc2O1 (centres unmarked) [Compound 5, 2-(2,2-Dimethyl-2'-oxospiro[chroman-4,5'-oxazolidin]-3'-yl) acetic acid]",42.3
3,"CC1(C)CC2(CN(CC(=O)O)C(=O)O2)c2cc(Br)ccc2O1 (centres unmarked) [Compound 6, 2-(6-Bromo-2,2-dimethyl-2'-oxospiro[chroman-4,5'-oxazolidin]-3'-yl) acetic acid]",17.3
4,"CC1(C)CC2(CN(CC(=O)O)C(=O)CO2)c2ccccc2O1 (centres unmarked) [Compound 7, 2-(2,2-Dimethyl-5'-oxospiro[chroman-4,2'-morpholin]-4'-yl) acetic acid]",2
5,"CC1(C)CC2(CN(CC(=O)O)CCO2)c2cc(Br)ccc2O1 (centres unmarked) [Compound 10, 2-(6-Bromo-2,2-dimethylspiro[chroman-4,2'-morpholin]-4'-yl) acetic acid]",4.17
6,"COc1cccc(COc2ccccc2C2(C)CN(CC(=O)O)C(=O)O2)c1 (centres unmarked) [Compound 11, 2-(5-(2-((3-Methoxybenzyl)oxy)phenyl)-5-methyl-2-oxooxazolidin-3-yl)acetic acid]",4.13
7,"COc1cc(COc2ccccc2C2(C)CN(CC(=O)O)C(=O)O2)cc(OC)c1OC (centres unmarked) [Compound 13, 2-(5-Methyl-2-oxo-5-(2-((3,4,5-trimethoxybenzyl)oxy)phenyl)oxazolidin-3-yl)acetic acid]",3.19

# Same assay, conditions: IC50 4.97 vs 0.58 μM
row,Compound,fold reduction in ARL2 inhibitory efficacy compared to parent 2 [fold]
1,"COc1ccc(C2(C)CC3(CN(CC(=O)O)C(=O)CO3)c3cc(Br)ccc3O2)cc1 (centres unmarked) [Compound 4, 2-(6-Bromo-2-(4-methoxyphenyl)-2-methyl-5'-oxospiro[chroman-4,2'-morpholin]-4'-yl) acetic acid]",~8
